Blank lines part the entries; values can stand above or below the molecule they belong to. Peptide text beside a SMILES is read from it. * marks the point of attachment. Cbz = O=C(OCc1ccccc1)*; Boc = CC(C)(C)OC(=O)*; N(Me)OMe = CON(C)*; OtBu = CC(C)(C)O*; NMeEt = CCN(C)*
Tests used:
Format in all cases: functional
Human adenovirus 2 [1] = assay: Compound was tested for inhibition of Adenovirus type 2 proteinase; showed no inhibitory activity; set-up: concentration or dose not given beside the values
Human adenovirus 2 [2] = assay: Inhibitory activity against Adenovirus type 2 proteinase; set-up: concentration or dose not given beside the values
Human adenovirus 2 [3] = assay: Compound was tested for inhibition of Adenovirus type 2 proteinase; Not very soluble and inactive at maximum soluble concentration
Human adenovirus 2 [4] = assay: Compound was tested for inhibition of Adenovirus type 2 proteinase; details: Human mastadenovirus C
Human adenovirus 2 [5] = assay: Compound was tested for noncompetitive inhibition of Adenovirus type 2 proteinase
Human adenovirus 2 [6] = assay: Inhibitory activity against Adenovirus type 2 proteinase; showed no inhibitory activity

SMILES: CON(C)C(=O)CNC(=O)CNC(=O)[C@H](C)NC(=O)[C@H](CC(C)C)NC(=O)OCc1ccccc1 (Cbz-LAGG-{N(Me)OMe})
- Inhibition (Human adenovirus 2 [1]): 0%

SMILES: CCN(C)C(=O)CNC(=O)CNC(=O)[C@H](C)NC(=O)[C@H](CC(C)C)NC(=O)OCc1ccccc1 (Cbz-LAGG-NMeEt)
- Inhibition (Human adenovirus 2 [1]): 0%

SMILES: CNC(=O)CNC(=O)CNC(=O)[C@H](C)NC(=O)[C@@H](N)CC(C)C (H-LAGG-NHMe)
- Inhibition (Human adenovirus 2 [1]): 0%

SMILES: CCOC(=O)CNC(=O)CNC(=O)[C@H](C)NC(=O)[C@H](CC(C)C)NC(=O)OCc1ccccc1 (Cbz-LAGG-OEt)
- Inhibition (Human adenovirus 2 [2]): 67%

SMILES: CNC(=O)CNC(=O)CNC(=O)[C@H](C)NC(=O)[C@H](CC(C)C)NC(=O)OCc1ccccc1 (Cbz-LAGG-NHMe)
- Inhibition (Human adenovirus 2 [3]): 0%

SMILES: CC(C)C[C@H](NC(=O)OC(C)(C)C)C(=O)N[C@@H](C)C(=O)NCC(=O)NCC(=O)OC(C)(C)C (Boc-LAGG-OtBu)
- Inhibition (Human adenovirus 2 [2]): 40%

SMILES: CC(C)C[C@H](N)C(=O)N[C@@H](C)C(=O)NCC(=O)NCC(N)=O (H-LAGG-NH2)
- Inhibition (Human adenovirus 2 [1]): 0%

SMILES: Cl.N#CCN
- Inhibition (Human adenovirus 2 [1]): 0%

SMILES: CC(C)C[C@H](NC(=O)OCc1ccccc1)C(=O)N[C@@H](C)C(=O)NCC(=O)NCC(N)=O (Cbz-LAGG-NH2)
- Inhibition (Human adenovirus 2 [3]): 0%

- IC50 (Human adenovirus 2 [4]): 10 µM
SMILES: CC(C)C[C@H](NC(=O)OCc1ccccc1)C(=O)N[C@@H](C)C(=O)NCC(=O)NCC#N
- Inhibition (Human adenovirus 2 [2]): 95%
- Ki (Human adenovirus 2 [5]): 16 µM

SMILES: N#CCNC(=O)CNC(=O)C(F)(F)F
- Inhibition (Human adenovirus 2 [1]): 0%

SMILES: CC(C)C[C@H](NC(=O)OCc1ccccc1)C(=O)N[C@@H](C)C(=O)NCC(=O)NCC(=O)N(C)C (Cbz-LAGG-NMe2)
- Inhibition (Human adenovirus 2 [1]): 0%

- IC50 (Human adenovirus 2 [4]): 6900 µM
SMILES: CC(C)C[C@H](NC(=O)C(F)(F)F)C(=O)N[C@@H](C)C(=O)NCC(=O)NCC#N
- Inhibition (Human adenovirus 2 [2]): 50%

- IC50 (Human adenovirus 2 [4]): 400 µM
SMILES: COC(CNC(=O)CNC(=O)[C@H](C)NC(=O)[C@H](CC(C)C)NC(=O)OCc1ccccc1)OC
- Inhibition (Human adenovirus 2 [2]): 59%
- Ki (Human adenovirus 2 [5]): 380 µM

SMILES: COC(=O)CNC(=O)CNC(=O)[C@H](C)NC(=O)[C@H](CC(C)C)NC(=O)OCc1ccccc1 (Cbz-LAGG-OMe)
- Inhibition (Human adenovirus 2 [2]): 72%

SMILES: CC(C)C[C@H](NC(=O)OCc1ccccc1)C(=O)N[C@@H](C)C(=O)NCC(=O)NCC(=O)O (Cbz-LAGG-OH)
- Inhibition (Human adenovirus 2 [6]): 0%

- IC50 (Human adenovirus 2 [4]): 1800 µM
SMILES: COC(CNC(=O)CNC(=O)[C@H](C)NC(=O)[C@H](CC(C)C)NC(=O)OC(C)(C)C)OC
- Inhibition (Human adenovirus 2 [2]): 59%

SMILES: C[C@H](NC(=O)C(F)(F)F)C(=O)NCC(=O)NCC#N
- Inhibition (Human adenovirus 2 [2]): 5%
